The results in this text go back to patent US11028058B2, “Heterocyclic compounds as adenosine antagonists” (NUVATION BIO INC., priority 2017, dated 2021).

In assay [1] the target is HEK-293 cells expressing human recombinant adenosine A2A receptor (Homo sapiens (Human), UniProt P29274). As to the kind of experiment: cAMP assay, Assay 2 (Eu-cAMP tracer / ULight-anti-cAMP). It counts as cell-based. The settings on record: Assay 2. As to the method:
The functional activity of compounds was tested using one of the two assays to detect the present of cAMP. Activation of G-protein coupled receptors (such as A2A) results in activation of adenylcyclase which converts ATP into cAMP which is used as a downstream signaling molecule. Therefore, molecules which act as GPCR (or specifically A2A receptor) antagonists cause a decrease in intracellular cAMP concentration.
Both assays used HEK-293 cells expressing human recombinant adenosine A2A receptor were grown prior to the test in media without antibiotic.
Assay 2 (Table B2-2): 100 nL of test articles at 100× of final concentration were transferred to assay plate by Echo. Cells were washed twice with 5 mL of PBS […]. After aspirating the PBS and adding 1.5 mL versine, cells were incubated at 37° C. for 2-5 min. After centrifugation, 4 mL of medium was added and adjusted cell density to 5,000 cells/well with Stimulation Buffer. 10 μL of cells were aliquoted to the assay plate, centrifuged at 1000 rpm for 1 minute, and incubated for 60 minutes at room temperature. 5 μL 4×Eu-cAMP tracer solution and 5 μL 4×Ulight™-anti-cAMP solution were added to assay plate, followed by centrifugation and 60-minute incubation at room temperature. Plates were read on EnVision.
For orientation: Changes in cAMP serve as a functional read-out for many G protein-coupled receptors.

The target in assay [2] is human adenosine A2A membrane preparation (Homo sapiens (Human), UniProt P29274). As to the kind of experiment: Adenosine A2A receptor radioligand binding assay (SPA beads, 3H-SCH 58261, 384 plate). The settings on record: for inhibition at 0.01 µM: read-out: A2a binding % inh @ 10 nM; for inhibition at 0.1 µM: read-out: A2a binding % inh @ 100 nM; for inhibition at 1 µM: read-out: A2a binding % inh @ 1000 nM; for inhibition at 0.001 µM: read-out: A2a binding % inh @ 1 nM. How it is done:
For the A2A adenosine receptor radioligand binding assay, the following modifications were made to the general protocol. GF/C filters (Perkin Elmer, 6005174), presoaked in 0.01% Brij for 2 h at room temperature were used. Filters were washed six times with 0.5 mL of ice-cold washing buffer (50 mM Tris pH 7.4) and 50 μL of Microscint 20 (Packard) was added in each well. The plates were then incubated for 15 min on an orbital shaker and then counted with a TopCount™ for 1 min/well. Another radioligand binding assay was used to evaluate the binding affinity for the adenosine A2A receptor assay was performed in duplicate in the wells of a 384 plate. Assay buffer contained DPBS 500 mM, MgCl2 0.1 mM, and 1% DMSO. Membrane-bead suspension was prepared by mixing 25.98 μL of human adenosine A2A membrane preparation (Perkin Elmer, RBHA2AM400UA) at 33.4 μg/mL, 28 μL of ADA at 20 μg/mL, and 932 μL of SPA beads at 3.33 mg/mL) and incubated the mixture for 20 min at room temperature. Mixed 20 μL of radiotracer (^3H-SCH 58261) at 15 nM to each well containing test articles at various concentrations and centrifuge the plate at 1000 rpm for 1 minute. Added 30 μL of the membraine-bead suspension to each well. Sealed the plates and incubated for 1 hr at room temperature with vigorous mixing on a plate mixer. Plates were read on Microbeta^2 (Perkin Elmer, 2450-0010).

human adenosine A2A membrane preparation, sequence (P29274 whole entry): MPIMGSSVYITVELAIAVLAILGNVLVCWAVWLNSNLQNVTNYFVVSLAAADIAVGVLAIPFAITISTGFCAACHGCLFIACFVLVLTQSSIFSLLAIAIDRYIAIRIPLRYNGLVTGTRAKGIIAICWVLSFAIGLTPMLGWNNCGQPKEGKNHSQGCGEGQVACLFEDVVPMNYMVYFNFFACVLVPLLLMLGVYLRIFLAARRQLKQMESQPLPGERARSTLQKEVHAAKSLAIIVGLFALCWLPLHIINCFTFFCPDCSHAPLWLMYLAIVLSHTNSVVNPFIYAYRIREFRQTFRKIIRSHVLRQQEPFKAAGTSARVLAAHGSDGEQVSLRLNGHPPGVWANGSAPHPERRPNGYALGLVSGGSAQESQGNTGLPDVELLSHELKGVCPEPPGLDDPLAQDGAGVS
HEK-293 cells expressing human recombinant adenosine A2A receptor, sequence (P29274 whole entry): as above

Broadly, the IC50 is the concentration at which inhibition is half-maximal. `Cc1n[nH]c(C)c1-c1nc(N)cnc1-c1ccc2ncccc2c1` [Compound 1.294, 6-(3,5-dimethyl-1H-pyrazol-4-yl)-5-(quinolin-6-yl)pyrazin-2-amine]: the IC50 in assay [1] was above 10000 nM.

Regarding `Cc1ccn(-c2nc(N)cnc2-c2cc(C)c3ncccc3c2)n1` [Compound 1.296, 6-(3-methyl-1H-pyrazol-1-yl)-5-(8-methylquinolin-6-yl)pyrazin-2-amine], the IC50 in assay [1] is 130 nM.

Turning to `Nc1cnc(-c2ccc3ncccc3c2)c(N2CCCC2)n1` [Compound 1.298, 6-(pyrrolidin-1-yl)-5-(quinolin-6-yl)pyrazin-2-amine], the IC50 in assay [1] is above 10000 nM.

`Cn1ccc(-c2nc(N)cnc2-c2ccc3[nH]ncc3c2)n1` [Compound 1.299, 5-(1H-indazol-5-yl)-6-(1-methyl-1H-pyrazol-3-yl)pyrazin-2-amine]: the IC50 in assay [1] was found to be 1250 nM.

Turning to `Cc1ccn(-c2nc(N)cnc2-c2cc(C)c3[nH]ncc3c2)n1` [Compound 1.300, 5-(7-methyl-1H-indazol-5-yl)-6-(3-methyl-1H-pyrazol-1-yl)pyrazin-2-amine], the IC50 in assay [1] was found to be 120 nM.

As to `Nc1cnc(-c2ccc3ncccc3c2)c(N2CCCC2=O)n1` [Compound 1.301, 1-(6-amino-3-(quinolin-6-yl)pyrazin-2-yl)pyrrolidin-2-one], the IC50 in assay [1] was above 10000 nM.

In the case of `Cc1cnn(-c2nc(N)cnc2-c2cc(Cl)c3ncccc3c2)c1` [Compound 1.303, 5-(8-chloroquinolin-6-yl)-6-(4-methyl-1H-pyrazol-1-yl)pyrazin-2-amine], the IC50 in assay [1] came to 573 nM.

As for `Cn1ccc(-c2nc(N)cnc2-c2cc(Cl)c3ncsc3c2)n1` [Compound 1.305, 5-(4-chlorobenzo[d]thiazol-6-yl)-6-(1-methyl-1H-pyrazol-3-yl)pyrazin-2-amine], the IC50 in assay [1] is 96 nM.

`Nc1cnc(-c2cc(Cl)c3ncccc3c2)c(-n2ccc(C(F)(F)F)n2)n1` [Compound 1.306, 5-(8-chloroquinolin-6-yl)-6-(3-(trifluoromethyl)-1H-pyrazol-1-yl)pyrazin-2-amine]: in assay [1], the IC50 was determined as 120 nM.

In the case of `Nc1cnc(-c2cc(Cl)c3ncccc3c2)c(-c2ccn(C3CC3)n2)n1` [Compound 1.307, 5-(8-chloroquinolin-6-yl)-6-(1-cyclopropyl-1H-pyrazol-3-yl)pyrazin-2-amine], the IC50 in assay [1] was found to be 8480 nM.

With `Cn1ccc(-c2nc(N)c(O)nc2-c2cc(Cl)c3ncccc3c2)n1` [Compound 1.310, 3-amino-6-(8-chloroquinolin-6-yl)-5-(1-methyl-1H-pyrazol-3-yl)pyrazin-2-ol], the IC50 in assay [1] amounted to 127 nM.

With `Cn1ccc(-c2nc(N)c(C(N)=O)nc2-c2cc(Cl)c3ncccc3c2)n1` [Compound 1.311, 3-amino-6-(8-chloroquinolin-6-yl)-5-(1-methyl-1H-pyrazol-3-yl)pyrazine-2-carboxamide], in assay [1], the IC50 was 279 nM.

For the compound `COc1nc(-c2cc(Cl)c3ncccc3c2)c(-c2ccn(C)n2)nc1N` [Compound 1.312, 5-(8-chloroquinolin-6-yl)-3-methoxy-6-(1-methyl-1H-pyrazol-3-yl)pyrazin-2-amine], the IC50 in assay [1] came to 251 nM.

On to `Cc1ccn(-c2nc(N)c(O)nc2-c2cc(Cl)c3ncccc3c2)n1` [Compound 1.313, 3-amino-6-(8-chloroquinolin-6-yl)-5-(3-methyl-1H-pyrazol-1-yl)pyrazin-2-ol], for which the IC50 in assay [1] came to 1550 nM.

Turning to `Cn1ccc(-c2nc(N)cnc2-c2cc(F)c3ncccc3c2)n1` [Compound 1.314, 5-(8-fluoroquinolin-6-yl)-6-(1-methyl-1H-pyrazol-3-yl)pyrazin-2-amine], the IC50 in assay [1] is 1540 nM.

As to `Cc1ccn(-c2nc(N)c(Br)nc2-c2cc(Cl)c3ncccc3c2)n1` [Compound 1.316, 3-bromo-5-(8-chloroquinolin-6-yl)-6-(3-methyl-1H-pyrazol-1-yl)pyrazin-2-amine], in assay [1], the IC50 was 40.1 nM.

In the case of `Cc1ccn(-c2nc(N)c(C(N)=O)nc2-c2cc(Cl)c3ncccc3c2)n1` [Compound 1.317, 3-amino-6-(8-chloroquinolin-6-yl)-5-(3-methyl-1H-pyrazol-1-yl)pyrazine-2-carboxamide], in assay [1], the IC50 stood at 279 nM.

Regarding `CCn1ccc(-c2nc(N)cnc2-c2cc(Cl)c3ncccc3c2)n1` [Compound 1.319, 5-(8-chloroquinolin-6-yl)-6-(1-ethyl-1H-pyrazol-3-yl)pyrazin-2-amine], the IC50 in assay [1] stood at 1930 nM.

`Cn1ccc(-c2nc(N)c(Br)nc2-c2cc(Cl)c3ncccc3c2)n1` [Compound 1.324, 3-bromo-5-(8-chloroquinolin-6-yl)-6-(1-methyl-1H-pyrazol-3-yl)pyrazin-2-amine]: the IC50 in assay [1] is 12.5 nM.

For `Nc1cnc(-c2ccc3c(=O)[nH]ccc3c2)c(-c2ccccc2)n1` [Compound 1.327, 6-(5-amino-3-phenylpyrazin-2-yl)isoquinolin-1(2H)-one], the IC50 in assay [1] was 173 nM.

On to `Cc1ccc(-c2nc(N)c(C#N)nc2-c2ccc3ncccc3c2)o1` [Compound No. 1.281, 3-amino-5-(5-methylfuran-2-yl)-6-(quinolin-6-yl)pyrazine-2-carbonitrile], for which, in assay [2], the inhibition at 0.01 µM was found to be 78%, the inhibition at 0.1 µM came out at 88% and the inhibition at 1 µM came out at 80%.

Regarding `Cc1ccc(-c2nc(N)c(C#N)nc2-c2ccc3ncccc3c2)s1` [Compound No. 1.282, 3-amino-5-(5-methylthiophen-2-yl)-6-(quinolin-6-yl)pyrazine-2-carbonitrile], in assay [2], the inhibition at 0.01 µM amounted to 74%, the inhibition at 0.1 µM was found to be 82% and the inhibition at 1 µM was found to be 79%.

For the compound `N#Cc1nc(-c2ccc3ncncc3c2)c(-c2ccccc2)nc1N` [Compound No. 1.283, 3-amino-5-phenyl-6-(quinazolin-6-yl)pyrazine-2-carbonitrile], in assay [2], the inhibition at 0.01 µM was found to be 63%, the inhibition at 0.1 µM turned out to be 83% and the inhibition at 1 µM was found to be 95%.

Turning to `CC(=O)Nc1nc(-c2ccccc2)c(-c2ccc3ncccc3c2)nc1C#N` [Compound No. 1.284, N-(3-cyano-6-phenyl-5-(quinolin-6-yl)pyrazin-2-yl)acetamide], in assay [2], the inhibition at 0.01 µM was 32%, the inhibition at 0.1 µM was 76% and the inhibition at 1 µM came out at 83%.

`Nc1cnc(-c2cc(Cl)c3[nH]ncc3c2)c(-c2ccccc2)n1` [Compound No. 1.289]: in assay [2], the inhibition at 0.001 µM is 41%, the inhibition at 0.01 µM was found to be 75%, the inhibition at 0.1 µM came out at 87% and the inhibition at 1 µM came out at 95%.

`Cc1cc(C)n(-c2nc(N)cnc2-c2ccc3ncccc3c2)n1` [Compound No. 1.291, 6-(3,5-dimethyl-1H-pyrazol-1-yl)-5-(quinolin-6-yl)pyrazin-2-amine]: in assay [2], the inhibition at 0.001 µM was 0%, the inhibition at 0.01 µM stood at 0% and the inhibition at 0.1 µM stood at 0%.

In assay [2] (Table B1-2), `Cc1ccn(-c2nc(N)c(C#N)nc2-c2cc(Cl)c3ncccc3c2)n1` [Compound No. 1.292, 3-amino-6-(8-chloroquinolin-6-yl)-5-(3-methyl-1H-pyrazol-1-yl)pyrazine-2-carbonitrile] yielded an IC50 of 2.4 nM. Moreover, in assay [2], the inhibition at 0.001 µM amounted to 50%, the inhibition at 0.01 µM came out at 93% and the inhibition at 0.1 µM was determined as 95%.

For the compound `Nc1cnc(-c2ccc3ncccc3c2)c(-c2cc[nH]n2)n1` [Compound No. 1.293, 6-(1H-pyrazol-3-yl)-5-(quinolin-6-yl)pyrazin-2-amine], in assay [2], the inhibition at 0.001 µM is 28%, the inhibition at 0.01 µM was found to be 32% and the inhibition at 0.1 µM came to 31%.
